According to patent publication US20140235601A1, “Use of Aromatase Inhibitor Or Estrogen Blocker For Increasing Spermatogenesis Or Testosterone Levels In Males” (priority 2011, published 2014):

Legend:
Format in all cases: in vivo, human
[1] = test system: married person with small very atrophic testicles; assay: Clinical Example A: person with history of undescended testicles, impotence and infertility treated with Arimidex; settings: ⅛ mg (0.125 mg) daily
Source text: A married person with a history of undescended testicles that were surgically corrected […]. This person presented to the inventor with small very atrophic testicles, impotence (difficulty in erecting, only occasionally able to have successful intercourse only with PDE5 inhibitors) and an inability to conceive despite two years of unprotected sexual intercourse with their spouse.
All of this is a result of the improved testicular function that this relatively low dose of Arimidex provided for this patient.

[2] = test system: person with extremely small and atrophic testicles; assay: Clinical Example B: person with low libido, erectile dysfunction and ejaculatory failure treated with Femara; settings: ⅛ to ½ of a 2.5 mg tablet
Method: A […] athletic and muscular […] complaining of low libido, erectile dysfunction and ejaculatory failure. Patient was needing to use Viagra in order to function sexually, and had no desire for sex. Sex hormones testosterone and estrogen were measured at prepubertal levels.

[3] = test system: person with testicular atrophy following pelvic radiation; assay: Clinical Example C: person with testicular decline after pelvic radiation for prostate cancer treated with Letrazole; settings: 1/40th of a 2.5 mg tablet daily
Source text: A sexually active person with biopsy confirmed prostate cancer elects to treat their cancer with pelvic radiation. Following radiation there is a progressive decline in testosterone levels, combined with testicular atrophy and increasing erectile dysfunction.

CC(C)(C#N)c1cc(Cn2cncn2)cc(C(C)(C)C#N)c1 [Arimidex, Anastrozole]
erectile function [1]: dramatic improvement
fertility (ability to conceive) [1]: able to conceive and have a child
sperm counts [1]: dramatic increase
testicular function [1]: improved
testosterone levels [1]: significant increase

N#Cc1ccc(C(c2ccc(C#N)cc2)n2cncn2)cc1 [Femara, Letrozole]
ejaculations during intercourse [2]: restoration
erections [2]: improved
sex drive [2]: restoration
testicular function [2]: dramatic increase
testosterone levels [2]: restored to the high supraphysiologic levels
testicular function [3]: significant improvement
testosterone levels [3]: dramatic rise
